# Patent US6423689B1, “Peptidyl calcium channel blockers” (Warner-Lambert Company, priority 1997, dated 2002)
# Target: T1, N-type Ca2+ channels in IMR-32 cells (Homo sapiens, UniProt Q00975)
# T1 construct: host or cells: IMR-32 cells, differentiated with dibutyryl cAMP and bromodeoxyuridine
# Experiment: Inhibition of N-type calcium flux in IMR-32 cells (Indo-1 fluorescence, nitrendipine present)
# Format: cell-based
# Settings: 1 μM
# Outline: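 Differentiated IMR-32 cells (7–13 days) were loaded with 5 μM Indo-1 AM, preincubated with compound for 10 min at 30° C, and depolarized with KCl/CaCl2 stimulation solution, with 5 μM nitrendipine blocking L-channels. Peak-minus-basal 400/490 nm emission ratio was plotted against drug concentration, and IC50 came from four-parameter logistic fits.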
# T1 sequence (Q00975 whole entry): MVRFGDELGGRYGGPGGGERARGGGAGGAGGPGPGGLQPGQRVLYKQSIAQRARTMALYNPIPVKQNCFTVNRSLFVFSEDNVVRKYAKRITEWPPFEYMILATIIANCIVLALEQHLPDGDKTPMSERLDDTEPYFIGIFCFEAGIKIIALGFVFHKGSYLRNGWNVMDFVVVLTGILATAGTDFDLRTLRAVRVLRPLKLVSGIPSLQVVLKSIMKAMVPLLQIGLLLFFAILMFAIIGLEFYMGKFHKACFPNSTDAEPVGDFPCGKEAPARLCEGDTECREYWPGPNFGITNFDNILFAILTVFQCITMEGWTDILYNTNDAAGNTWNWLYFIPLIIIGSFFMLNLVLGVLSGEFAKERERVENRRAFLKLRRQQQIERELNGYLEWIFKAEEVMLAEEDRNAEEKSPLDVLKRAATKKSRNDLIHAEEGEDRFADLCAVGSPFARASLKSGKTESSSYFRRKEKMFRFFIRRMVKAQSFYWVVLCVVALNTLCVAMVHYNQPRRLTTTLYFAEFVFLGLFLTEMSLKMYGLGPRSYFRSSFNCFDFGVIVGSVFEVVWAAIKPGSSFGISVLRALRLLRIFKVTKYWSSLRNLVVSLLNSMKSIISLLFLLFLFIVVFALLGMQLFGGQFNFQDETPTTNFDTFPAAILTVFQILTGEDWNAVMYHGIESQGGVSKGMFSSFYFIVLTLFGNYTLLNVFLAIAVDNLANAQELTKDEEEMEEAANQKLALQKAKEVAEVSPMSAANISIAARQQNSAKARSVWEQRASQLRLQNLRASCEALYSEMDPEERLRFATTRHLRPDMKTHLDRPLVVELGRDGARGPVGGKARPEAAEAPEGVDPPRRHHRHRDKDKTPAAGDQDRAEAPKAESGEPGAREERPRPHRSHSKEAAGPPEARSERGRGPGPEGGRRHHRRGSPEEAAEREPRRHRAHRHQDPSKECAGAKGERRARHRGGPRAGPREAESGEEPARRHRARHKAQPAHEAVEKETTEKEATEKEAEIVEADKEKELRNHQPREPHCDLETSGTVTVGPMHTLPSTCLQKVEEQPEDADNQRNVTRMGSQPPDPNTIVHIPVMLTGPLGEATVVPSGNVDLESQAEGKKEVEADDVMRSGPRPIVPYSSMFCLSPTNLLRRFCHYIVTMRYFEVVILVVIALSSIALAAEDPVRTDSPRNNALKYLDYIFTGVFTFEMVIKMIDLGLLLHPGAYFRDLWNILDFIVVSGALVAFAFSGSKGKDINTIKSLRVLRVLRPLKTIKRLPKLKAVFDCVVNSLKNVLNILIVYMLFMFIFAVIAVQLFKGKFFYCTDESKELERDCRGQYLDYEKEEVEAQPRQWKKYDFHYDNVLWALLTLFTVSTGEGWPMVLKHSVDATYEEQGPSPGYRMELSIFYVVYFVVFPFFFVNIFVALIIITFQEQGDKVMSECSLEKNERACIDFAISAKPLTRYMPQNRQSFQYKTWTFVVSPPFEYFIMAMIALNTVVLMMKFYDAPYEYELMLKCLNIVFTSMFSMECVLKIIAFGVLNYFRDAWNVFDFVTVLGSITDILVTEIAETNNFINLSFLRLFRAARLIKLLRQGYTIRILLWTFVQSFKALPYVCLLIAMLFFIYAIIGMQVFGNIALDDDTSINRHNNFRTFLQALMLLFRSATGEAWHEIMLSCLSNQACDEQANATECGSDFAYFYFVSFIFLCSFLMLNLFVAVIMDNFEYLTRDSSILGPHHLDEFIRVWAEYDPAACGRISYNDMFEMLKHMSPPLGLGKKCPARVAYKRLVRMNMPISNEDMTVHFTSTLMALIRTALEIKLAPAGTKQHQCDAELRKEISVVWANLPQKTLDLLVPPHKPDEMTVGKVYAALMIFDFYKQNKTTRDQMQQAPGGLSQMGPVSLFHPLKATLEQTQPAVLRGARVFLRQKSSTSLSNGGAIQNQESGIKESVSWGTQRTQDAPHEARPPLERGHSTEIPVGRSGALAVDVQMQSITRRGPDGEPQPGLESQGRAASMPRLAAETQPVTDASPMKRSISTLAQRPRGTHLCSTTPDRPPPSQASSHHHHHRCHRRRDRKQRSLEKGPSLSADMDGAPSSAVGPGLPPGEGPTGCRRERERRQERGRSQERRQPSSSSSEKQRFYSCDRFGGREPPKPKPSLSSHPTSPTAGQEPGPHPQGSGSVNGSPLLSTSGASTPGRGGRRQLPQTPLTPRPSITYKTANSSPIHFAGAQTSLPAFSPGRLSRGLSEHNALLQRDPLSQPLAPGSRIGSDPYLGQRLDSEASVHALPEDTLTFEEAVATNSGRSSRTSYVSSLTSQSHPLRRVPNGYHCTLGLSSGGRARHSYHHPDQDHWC
# T1 sequence (P54289 25-956 partner limits assumed): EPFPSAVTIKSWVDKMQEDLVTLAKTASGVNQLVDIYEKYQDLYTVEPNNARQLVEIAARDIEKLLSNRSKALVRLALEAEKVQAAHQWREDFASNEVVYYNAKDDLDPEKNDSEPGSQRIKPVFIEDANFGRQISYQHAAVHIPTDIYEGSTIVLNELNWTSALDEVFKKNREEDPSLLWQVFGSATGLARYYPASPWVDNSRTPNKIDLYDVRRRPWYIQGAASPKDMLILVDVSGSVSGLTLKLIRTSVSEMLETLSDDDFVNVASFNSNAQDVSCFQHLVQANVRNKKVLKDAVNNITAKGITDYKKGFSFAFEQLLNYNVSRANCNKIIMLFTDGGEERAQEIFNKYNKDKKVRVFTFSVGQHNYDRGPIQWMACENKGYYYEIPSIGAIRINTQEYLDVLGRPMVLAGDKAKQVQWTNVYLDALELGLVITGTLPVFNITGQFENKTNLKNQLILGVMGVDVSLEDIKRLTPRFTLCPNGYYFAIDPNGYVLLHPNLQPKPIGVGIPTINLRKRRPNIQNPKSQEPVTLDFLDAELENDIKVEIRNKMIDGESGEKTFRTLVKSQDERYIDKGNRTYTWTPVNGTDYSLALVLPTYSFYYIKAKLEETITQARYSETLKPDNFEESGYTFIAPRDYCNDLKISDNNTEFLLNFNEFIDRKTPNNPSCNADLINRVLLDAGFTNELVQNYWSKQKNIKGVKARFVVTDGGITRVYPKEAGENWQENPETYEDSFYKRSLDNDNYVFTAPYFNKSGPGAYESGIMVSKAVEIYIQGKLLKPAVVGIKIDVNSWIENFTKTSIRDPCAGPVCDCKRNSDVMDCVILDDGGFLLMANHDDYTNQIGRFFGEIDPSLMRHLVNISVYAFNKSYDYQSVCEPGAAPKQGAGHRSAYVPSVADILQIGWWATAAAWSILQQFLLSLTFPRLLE
# T1 sequence (P54289 957-1103 partner limits assumed): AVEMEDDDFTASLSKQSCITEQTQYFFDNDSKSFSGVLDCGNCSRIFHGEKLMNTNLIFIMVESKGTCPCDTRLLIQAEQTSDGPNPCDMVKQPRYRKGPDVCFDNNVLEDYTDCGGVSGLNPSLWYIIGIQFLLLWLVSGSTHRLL
# T1 sequence (P54284 whole entry partner): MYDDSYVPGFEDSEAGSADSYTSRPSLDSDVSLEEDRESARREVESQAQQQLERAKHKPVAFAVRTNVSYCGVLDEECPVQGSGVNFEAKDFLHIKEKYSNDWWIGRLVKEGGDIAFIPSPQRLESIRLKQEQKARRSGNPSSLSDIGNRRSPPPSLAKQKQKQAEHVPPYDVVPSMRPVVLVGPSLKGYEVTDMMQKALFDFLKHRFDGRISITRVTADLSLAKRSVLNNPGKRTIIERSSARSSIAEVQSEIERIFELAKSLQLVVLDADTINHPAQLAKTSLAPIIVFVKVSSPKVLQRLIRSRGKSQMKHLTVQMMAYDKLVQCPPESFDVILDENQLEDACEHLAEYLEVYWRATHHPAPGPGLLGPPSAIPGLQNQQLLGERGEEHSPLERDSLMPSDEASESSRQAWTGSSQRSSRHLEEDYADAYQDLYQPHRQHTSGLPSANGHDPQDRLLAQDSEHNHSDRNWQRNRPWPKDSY
row,Inhibition of Calcium Flux in IMR-32 Cells % Inhibition at 1 μM [%],SMILES
1,23,CC(C)C[C@H](NC(=O)N1CCCCCC1)C(=O)N[C@@H](Cc1ccc(OCc2ccccc2)cc1)C(=O)NCC(C)NC(C)C (some centres unmarked) [Example 242]
2,24,CC(=O)N[C@H]1CCN(C(=O)[C@H](Cc2ccc(OCc3ccccc3)cc2)NC(=O)[C@H](CC(C)C)NC(=O)N2CCCCCC2)C1 [Example 244]

# Same assay, conditions: 10 μM
row,Inhibition of Calcium Flux in IMR-32 Cells % Inhibition at 10 μM [%],SMILES
1,73,CC(=O)N[C@H]1CCN(C(=O)[C@H](Cc2ccc(OCc3ccccc3)cc2)NC(=O)[C@H](CC(C)C)NC(=O)N2CCCCCC2)C1 [Example 244]

# Same assay, conditions: IMR-32
inhibition at 1 µM [%],inhibition at 10 µM [%],SMILES
39,83,"CC(C)C[C@H](NC(=O)N1CCCCCC1)C(=O)N[C@@H](Cc1ccc(OCc2ccccc2)cc1)C(=O)Nc1cccnc1 [Example 254, [S-(R*,R*)]-Azepane-1-carboxylic acid {1-[2-(4-benzyloxy-phenyl)-1-(pyridin-3-ylcarbamoyl)-ethylcarbamoyl]-3-methyl-butyl}-amide]"
,17,"CC(C)C[C@H](NC(=O)N1CCCCCC1)C(=O)N[C@@H](Cc1ccc(OCc2ccccc2)cc1)C(=O)NCC1CCNCC1 [Example 262, [S-(R*,R*)]-Azepane-1-carboxylic acid (1-{-2-(4-benzyloxy-phenyl)-1-[(piperidin-4-ylmethyl)-carbamoyl]-ethylcarbamoyl]-3-methyl-butyl}-amide]"

# The next lines start with the compound.
SMILES,inhibition at 1 µM [%],inhibition at 10 µM [%]
"CC(C)CC(NC(=O)N1CCCCCC1)C(=O)NC(Cc1ccc(OCc2ccccc2)cc1)C(=O)NC(C)CN(C)C (centres unmarked) [Example 230, Azepane-1-carboxylic acid {1-[2-(4-benzyloxy-phenyl)-1-(2-dimethylamino-1-methyl-ethylcarbamoyl)-ethylcarbamoyl]-3-methyl-butyl}-amide]",34,81
"CC(C)CC(NC(=O)N1CCCCCC1)C(=O)NC(Cc1ccc(OCc2ccccc2)cc1)C(=O)N1CCCC(O)C1 (centres unmarked) [Example 234, Azepane-1-carboxylic acid {1-[1-(4-benzyloxy-benzyl)-2-(3-hydroxy-piperidin-1-yl)-2-oxo-ethylcarbamoyl]-3-methyl-butyl}-amide]",32,67
"CC(C)CC(NC(=O)N1CCCCCC1)C(=O)NC(Cc1ccc(OCc2ccccc2)cc1)C(=O)NC(C)CNCC(C)N (centres unmarked) [Example 239, Azepane-1-carboxylic acid {1-[1-[2-(2-amino-propylamino)-1-methyl-ethylcarbamoyl]-2-(4-benzyloxy-phenyl)-ethylcarbamoyl]-3-methyl-butyl}-amide]",22,23
"CCC(C)NC(=O)C(Cc1ccc(OCc2ccccc2)cc1)NC(=O)C(CC(C)C)NC(=O)N1CCCCCC1 (centres unmarked) [Example 243, Azepane-1-carboxylic acid {1-[2-(4-benzyloxy-phenyl)-1-sec-butylcarbamoyl-ethylcarbamoyl]-3-methyl-butyl}-amide]",48,89
"CCC(COC)NC(=O)C(Cc1ccc(OCc2ccccc2)cc1)NC(=O)C(CC(C)C)NC(=O)N1CCCCCC1 (centres unmarked) [Example 245, Azepane-1-carboxylic acid {1-[2-(4-benzyloxy-phenyl)-1-(1-methoxymethyl-propylcarbamoyl)-ethylcarbamoyl]-3-methyl-butyl}-amide]",57,89

# Same assay, conditions: IMR-32 cells, 5 μM nitrendipine, K+ depolarization
row,IC50 [nM],SMILES
1,1600,"CC(C)C[C@H](NC(=O)N1CCCCCC1)C(=O)N[C@@H](Cc1ccc(OCc2ccccc2)cc1)C(=O)Nc1cccnc1 [Example 254, [S-(R*,R*)]-Azepane-1-carboxylic acid {1-[2-(4-benzyloxy-phenyl)-1-(pyridin-3-ylcarbamoyl)-ethylcarbamoyl]-3-methyl-butyl}-amide]"
2,4300,"CC(C)C[C@H](NC(=O)N1CCCCCC1)C(=O)N[C@@H](Cc1ccc(OCc2ccccc2)cc1)C(=O)NCCCO [Example 255, [S-(R*,R*)]-Azepane-1-carboxylic acid {1-[2-(4-benzyloxy-phenyl)-1-(3-hydroxy-propylcarbamoyl)-ethylcarbamoyl]-3-methyl-butyl}-amide]"
3,1500,"CC(C)CC(NC(=O)N1CCCCCC1)C(=O)NC(Cc1ccc(OCc2ccccc2)cc1)C(=O)N1CCCC(CO)C1 (centres unmarked) [Example 256, Azepane-1-carboxylic acid {1-[1-(4-benzyloxy-benzyl)-2-(3-hydroxymethyl-piperidin-1-yl)-2-oxo-ethylcarbamoyl]-3-methyl-butyl}-amide]"
4,3600,"CC(C)C[C@H](NC(=O)N1CCCCCC1)C(=O)N[C@@H](Cc1ccc(OCc2ccccc2)cc1)C(=O)NC1CCNC1 (stereo partly drawn) [Example 258, [S-(R*,R*)]-Azepane-1-carboxylic acid {1-[2-(4-benzyloxy-phenyl)-1-(pyrrolidin-3-ylcarbamoyl)-ethylcarbamoyl]-3-methyl-butyl}-amide]"
5,2400,"CC(C)C[C@H](NC(=O)N1CCCCCC1)C(=O)N[C@@H](Cc1ccc(OCc2ccccc2)cc1)C(=O)N1CCCNCC1 [Example 259, [S-(R*,R*)]-Azepane-1-carboxylic acid {1-[2-(4-benzyloxy-phenyl)-1-(1,4]diazepane-1-carbonyl)-ethylcarbamoyl]-3-methyl-butyl}-amide]"
6,51000,"CC(C)C[C@H](NC(=O)N1CCCCCC1)C(=O)N[C@@H](Cc1ccc(OCc2ccccc2)cc1)C(=O)NCC1CCNCC1 [Example 262, [S-(R*,R*)]-Azepane-1-carboxylic acid (1-{-2-(4-benzyloxy-phenyl)-1-[(piperidin-4-ylmethyl)-carbamoyl]-ethylcarbamoyl]-3-methyl-butyl}-amide]"
7,1200,"CC(C)C[C@H](NC(=O)N1CCCCCC1)C(=O)N[C@@H](Cc1ccc(OCc2ccccc2)cc1)C(=O)NCc1ccccc1 [Example 263, [S-(R*,R*)]-Azepane-1-carboxylic acid {1-[1-benzylcarbamoyl-2-(4-benzyloxy-phenyl)-ethylcarbamoyl]-3-methyl-butyl}-amide]"
8,740,"COc1ccc(N2CCN(C(=O)[C@H](Cc3ccc(OCc4ccccc4)cc3)NC(=O)[C@H](CC(C)C)NC(=O)N3CCCCCC3)CC2)cc1 [Example 264, [S-(R*,R*)]-Azepane-1-carboxylic acid (1-{1-(4-benzyloxy-benzyl)-2-[4-(4-methoxy-phenyl)-piperazin-1-yl]-2-oxo-ethylcarbamoyl}-3-methyl-butyl)-amide]"
9,1000,"CC(C)C[C@H](NC(=O)N1CCCCCC1)C(=O)N[C@@H](Cc1ccc(OCc2ccccc2)cc1)C(=O)N1CCC(Cc2ccccc2)CC1 [Example 265, [S-(R*,R*)]-Azepane-1-carboxylic acid {1-[1-(4-benzyloxy-benzyl)-2-(4-benzyl-piperidin-1-yl)-2-oxo-ethylcarbamoyl]-3-methyl-butyl}-amide]"
10,1800,"CC(C)C[C@H](NC(=O)N1CCCCCC1)C(=O)N[C@@H](Cc1ccc(OCc2ccccc2)cc1)C(=O)NC(C)(C)CO [Example 266, Azepane-1-carboxylic acid {(S)-1-[(S)-2-(4-benzyloxy-phenyl)-1-(2-hydroxy-1,1-dimethyl-ethylcarbamoyl)-ethylcarbamoyl]-3-methyl-butyl}-amide]"

# Continued, compound first:
row,SMILES,IC50 [nM]
1,"CC(C)CC(NC(=O)N1CCCCCC1)C(=O)NC(Cc1ccc(OCc2ccccc2)cc1)C(=O)NCC1CCN(Cc2ccccc2)C1 (centres unmarked) [Example 250, Azepane-1-carboxylic acid (1-{2-(4-benzyloxy-phenyl)-1-[(1-benzyl-pyrrolidin-3-ylmethyl)-carbamoyl]-ethylcarbamoyl}-3-methyl-butyl)-amide]",270
2,"CC(C)C[C@H](NC(=O)N1CCCCCC1)C(=O)N[C@@H](Cc1ccc(OCc2ccccc2)cc1)C(=O)N(CCO)Cc1ccccc1 [Example 251, S-(R*,R*)]-Azepane-1-carboxylic acid {1-[1-[benzyl-(2-hydroxy-ethyl)-carbamoyl]-2-(4-benzyloxy-phenyl)-ethylcarbamoyl]-3-methyl-butyl}-amide]",740
3,"CC(C)C[C@H](NC(=O)N1CCCCCC1)C(=O)N[C@@H](Cc1ccc(OCc2ccccc2)cc1)C(=O)NCCNCc1ccccc1 [Example 252, [S-(R*,R*)]-Azepane-1-carboxylic acid {1-[1-(2-benzylamino-ethylcarbamoyl)-2-(4-benzyloxy-phenyl)-ethylcarbamoyl]-3-methyl-butyl}-amide]",280
